Measurements: patent US5206382A, “Indole derivatives, pharmaceutical compositions and methods of treating neurological and psychiatric disorders” (Fidia Georgetown Institute for the Neurosciences, priority 1991, dated 1993)

Columns and labels:
[1] = target: T1, MBR (mitochondrial benzodiazepine recognition site) (Rattus norvegicus, UniProt P16257); assay: Displacement of ^3 H-RO5-4864 from mitochondrial BZD recognition site (MBR); type: binding, Sprague Dawley rat; conditions: displacement of 1 nM ^3 H-RO5-4864, rat mitochondria; range in parentheses
T1 construct: Brain and adrenal glands were removed and homogenized with Polytron; from tissue; host or cells: mitochondrial fraction of Sprague Dawley rat brain and adrenal glands
Description: (§1) Mitochondrial Preparation: Sprague Dawley rats (200-250 gr.) were killed by decapitation. Brain and adrenal glands were removed and homogenized with Polytron for 15 minutes in ice cold buffer (10 mM Na/KPO4, 0.32M sucrose, pH 7.4). The homogenate was centrifuged for 15 minutes at 6,500 xg at 4° C. The resulting supernatant was centrifuged for 15 minutes at […] at 4° C. The pellet was suspended in buffer (20 times) by gentle homogenization and centrifuged at 10,000 xg at 4° C. for 15 minutes. The washed mitochondrial pellet was stored at -70° C.
(§2) For the binding assay the mitochondrial fraction was diluted with 50 mM Na/KPO4 buffer (pH 7.4) to give a final protein concentration of […] in 100 μl buffer. This suspension was incubated with 1 nM of ^3 H PK-11195 or ^3 H RO 5-4864 (50 μl) with or without 10/μM unlabeled PK-11195 or RO 5-4864 to assess the extent of total and non-specific binding. Different amounts of indole derivatives were added to the incubation medium in a volume of 50 μl. After incubation for 60 minutes at 4° C., samples were filtered and the radioactivity was measured in a scintillation counter.

[2] = target: T2, ^3 H-ZOLPIDEM binding (crude synaptic membrane) (Rattus norvegicus, UniProt P18508+P62813); assay: ^3 H-ZOLPIDEM binding, crude synaptic membranes; set-up: species or system Sprague Dawley rat; conditions: 2 nM ^3 H-ZOLPIDEM, rat cerebellum membranes
T2 construct: from tissue; host or cells: crude synaptic membranes of Sprague Dawley rat cerebellum
T2 sequence (P62813 28-455): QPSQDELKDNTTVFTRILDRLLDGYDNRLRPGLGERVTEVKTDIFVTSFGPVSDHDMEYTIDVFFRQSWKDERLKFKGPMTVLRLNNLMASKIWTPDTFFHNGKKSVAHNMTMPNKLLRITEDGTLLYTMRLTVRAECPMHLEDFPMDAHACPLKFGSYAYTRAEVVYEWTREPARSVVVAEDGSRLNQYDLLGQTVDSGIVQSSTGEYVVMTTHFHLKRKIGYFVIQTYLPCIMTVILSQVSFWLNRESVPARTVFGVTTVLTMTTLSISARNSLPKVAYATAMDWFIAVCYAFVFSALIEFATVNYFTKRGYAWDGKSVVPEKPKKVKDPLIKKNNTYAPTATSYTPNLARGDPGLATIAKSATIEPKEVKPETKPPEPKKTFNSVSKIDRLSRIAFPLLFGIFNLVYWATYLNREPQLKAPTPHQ
T2 sequence (P18508 39-466): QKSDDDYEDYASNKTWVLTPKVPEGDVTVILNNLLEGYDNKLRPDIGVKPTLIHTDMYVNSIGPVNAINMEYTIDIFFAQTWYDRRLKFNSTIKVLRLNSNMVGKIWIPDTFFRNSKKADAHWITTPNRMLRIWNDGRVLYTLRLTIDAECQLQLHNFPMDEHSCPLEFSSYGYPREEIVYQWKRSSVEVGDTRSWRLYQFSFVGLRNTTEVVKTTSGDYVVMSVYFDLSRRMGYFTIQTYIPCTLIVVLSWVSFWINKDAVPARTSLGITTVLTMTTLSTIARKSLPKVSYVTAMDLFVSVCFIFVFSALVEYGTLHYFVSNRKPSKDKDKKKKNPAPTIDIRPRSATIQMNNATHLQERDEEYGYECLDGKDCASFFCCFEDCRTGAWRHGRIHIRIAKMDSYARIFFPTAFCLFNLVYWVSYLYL
Description: (§3) Crude Synaptic Membrane Preparation: Sprague Dawley rats (200-250 gr.) were killed by decapitation. The cerebella were removed and incubated for 20 minutes in ice cold double distilled water after homogenization with Polytron. The homogenate was centrifuged at 18,000 xg at 4° C. for 10 minutes. The pellet was suspended in ice-cold buffer 50 mM Na/KPO4(pH 7.4) and centrifuged at 18,000 xg at 4° C. for 10 minutes. After two other centrifugations, the membranes were suspended in 5 ml of buffer and the proteins were measured.
(§4) The membranes were diluted with 50 mM Na/KPO4 buffer (pH 7.4) to a concentration of 150 μg of protein/ml, and 150 μl aliquots of the suspension were incubated with 50 μl of the different ligands to be tested: ^3 H-ZOLPIDEM(2 nM), ^3 H-FLUMAZENIL (2 nM), ^3 H-GABA(10 nM), ^3 H-MK 801(5 nM), ^3 H-KETANSERIN(1 nM), ^3 H-GLYCINE(20 nM), ^3 H-SPIPERONE(1 nM), ^3 H-AMPA(10 nM), ^3 H-3-PPP(1 nM), and ^3 H-NALOXONE(1 nM). Non-specific binding was assessed by displacing with 10 to 1000/μM of cold ligand. The different indole derivatives were added in a volume of 50 μl in a concentration varying from 10^-9 to 10^-3 M. The results are reported in Table I hereinbelow.

[3] = target: T3, BZD binding site located on the GABAA receptor (Rattus norvegicus, UniProt P18508+P62813); assay: ^3 H-FLUMAZENIL binding, crude synaptic membranes; set-up: species or system Sprague Dawley rat; conditions: 2 nM ^3 H-FLUMAZENIL, rat cerebellum membranes
T3 construct: The cerebella were removed and incubated for 20 minutes in ice cold double distilled water; from tissue; host or cells: crude synaptic membranes of Sprague Dawley rat cerebellum
T3 sequence (P62813 28-455): as the sequence (P62813 28-455) above
T3 sequence (P18508 39-466): as the sequence (P18508 39-466) above
Description: as §3
as §4, with “ligand.” for “ligand. The different indole derivatives were added in a volume of 50 μl in a concentration varying from 10^-9 to 10^-3 M. The results are reported in Table I hereinbelow.”

[4] = target: ^3 H-GABA binding (crude synaptic membrane); assay: ^3 H-GABA binding, crude synaptic membranes; set-up: species or system Sprague Dawley rat; conditions: 10 nM ^3 H-GABA, rat cerebellum membranes
Description: as §3, §4

[5] = target: T1, MBR (mitochondrial benzodiazepine recognition site); assay: Displacement of ^3 H-PK11195 from mitochondrial BZD recognition site (MBR); type: binding, Sprague Dawley rat; conditions: for IC50: displacement of 1 nM ^3 H-PK11195, rat mitochondria, range in parentheses; for ^3 H-PK11195 / ^3 H-RO5-4864: ratio of the two IC50 values
Description: as §1, §2

Sprague Dawley rats = assay: Elevated X maze test; type: in vivo, Sprague Dawley rat; conditions: for Entries in open arms, test after 10 min injection / Entries in open arms, test after 20 min injection / Entries in open arms, test after 30 min injection: 20 mg/kg i.v., rats; for behavioral output of rats in the elevated X maze test: in words
Description: The elevated X maze is a behavioral test to detect anxiolytic drugs in rodents. […] The plus-maze consists of two open arms (43×8 cm) and two similarly sized enclosed arms with 9 cm high walls, arranged so that the arms of the same type are opposite each other. There is a central square of 8 cm. The apparatus is elevated to a height of 10 cm and each arm is divided into 3 squares.
Sprague Dawley rats weighing 200-250 gr. were housed in a room with a 12 hour light: 12 hour dark cycle and were allowed free access to food and water. After an i.v. injection of different indole derivatives, the rats were kept separated for 10, 20 or 30 minutes before testing. The testing period commenced when each animal was placed onto the central square of the maze. The number of entries in each arm was then recorded for 5 minutes. The maze was cleaned with water after each trial. The number of entries in the open arms provided a measure of anxiolytic activity of the drugs.

[6] = system: mitochondrial pregnenolone formation, C6-2B glioma cells; assay: Pregnenolone formation in glial mitochondria (C6-2B glioma cells); type: biochemical; conditions: for Effective concentration, maximal / EC50: C6 glial cell mitochondria, 15 minutes at 37° C.; for Stimulation %: pregnenolone formation, increase over the control; for EC50: read-out: Effective concentration, 50%
Description: The mixture was preincubated for 5 minutes at 37° C. The incubation mixture was extracted with 5 ml chloroform/methanol (2:1, vol/vol), and the organic phase was evaporated to dryness. Pregnenolone was measured by a specific radioimmunoassay using an antibody obtained from Radioassay Systems Laboratories, Carson, Calif.

Row | SMILES | IC50 [1] [µM] | IC50 [2] [µM] | IC50 [3] [µM] | IC50 [4] [µM] | IC50 [5] [µM] | ^3 H-PK11195 / ^3 H-RO5-4864 [5] | Entries in open arms, test after 10 min injection (Sprague Dawley rats) | behavioral output of rats in the elevated X maze test (Sprague Dawley rats) | Entries in open arms, test after 20 min injection (Sprague Dawley rats) | Entries in open arms, test after 30 min injection (Sprague Dawley rats) | Effective concentration, maximal [6] | Stimulation % [6] | EC50 [6] [µM] | intrinsic efficacy (pregnenolone formation) ([6]; in words) | binding to MBR in words ([5]; Tables I and II compared)
1 | CCCN(CCC)C(=O)Cc1c(-c2ccc(Cl)cc2)[nH]c2ccccc12 [compound 5] | 0.0255 | > 1 | > 1 | > 1 | 0.0285 | 1.1 |  |  |  |  |  |  |  |  | 
2 | CCCN(CCC)C(=O)Cc1c(-c2cccs2)[nH]c2ccc(Cl)cc12 [compound 17] | 0.0375 |  | > 1 |  | 0.05 | 1.3 |  |  |  |  |  |  |  |  | 
3 | CCCN(CCC)C(=O)Cc1c(-c2ccc(Br)cc2)[nH]c2ccccc12 [compound 18] | 0.036 |  | > 1 |  | 0.075 | 2 | 2 | increase the behavioral output |  |  |  |  |  |  | 
4 | CCCN(CCC)C(=O)Cc1c(-c2cccc(Cl)c2)[nH]c2ccccc12 [compound 21] | 0.08 |  | > 1 | > 1 | 0.1 | 1.2 | 2 | increase the behavioral output | 4 | 0 |  |  |  |  | 
5 | CCCN(CCC)C(=O)Cc1c(-c2ccc(Cl)cc2)[nH]c2ccc(Cl)cc12 [Compound No. 6] | 0.04 | > 1 | > 1 |  | 0.045 | 1.1 |  |  |  |  |  |  |  |  | 
6 | CCCN(CCC)C(=O)Cc1c(-c2ccc(Cl)cc2)n(C)c2ccccc12 [compound 22] | 0.2 |  | > 1 |  | 0.2 | 1 | 3 | increase the behavioral output | 2 | 6 | 10^-8 M | 170% |  |  | 
7 | CCCN(CCC)C(=O)C(C)c1c(-c2ccc(Cl)cc2)[nH]c2ccccc12 (stereo not drawn) [compound 19] | > 1 |  | > 1 |  | > 1 |  | 1 | increase the behavioral output |  |  |  |  |  |  | 
8 | CCCN(CCC)C(=O)C=Cc1c(-c2ccc(Cl)cc2)[nH]c2ccccc12 [compound 24] | 0.6 | > 1 | > 1 |  | 0.7 | 1.1 | 3 | increase the behavioral output | 2 | 3 |  |  |  |  | 
9 | c1ccc(-c2[nH]c3ccccc3c2CC2=NCCN2)cc1 [Compound No. 15] | > 1 |  | > 1 |  | > 1 |  |  |  |  |  |  |  |  |  | 
10 | CCCN(CCC)C(=O)Cc1c(-c2ccc(F)cc2)[nH]c2ccccc12 [compound 20] | 0.05 |  | > 1 | > 1 | 0.1 | 2 | 3 | increase the behavioral output | 2 | 6 | 10^-9 M | 183% | 0.00033 |  | 
11 | CCCN(CCC)C(=O)Cc1c(-c2cccs2)[nH]c2ccccc12 [Compound No. 10] | 0.0145 | > 1 | > 1 |  | 0.024 | 1.6 |  |  |  |  |  |  |  |  | 
12 | CCCCCCNC(=O)Cc1c(-c2ccccc2)[nH]c2ccccc12 [Compound No. 13] | 0.0325 | > 1 | > 1 | > 1 | 0.0575 | 1.8 | 2 | increase the behavioral output | 2 | 3 |  |  |  |  | 
13 | CCCN(CCC)C(=O)CCc1c(-c2ccc(Cl)cc2)[nH]c2ccc(Cl)cc12 [compound 11] | 0.12 | > 1 | > 1 |  | 0.18 | 1.5 |  |  |  |  |  |  |  |  | 
14 | Cc1ccc(-c2[nH]c3ccc(C)cc3c2CC(=O)N(C)C)cc1 [Compound No. 9] | 0.255 | > 1 |  |  | > 1 | > 3 |  |  |  |  | > 10^-6 M | none |  |  | 
15 | O=C(Cc1c(-c2ccccc2)[nH]c2ccccc12)N1CCCCC1 [Compound No. 3] | 0.059 | > 1 |  |  | 0.084 | 1.4 |  |  |  |  |  |  |  |  | 
16 | CCCN(CCC)C(=O)Cc1c2n(c3ccccc13)Cc1ccccc1-2 [Compound No. 16] | 0.04 |  | > 1 |  | 0.03 | 0.75 |  |  |  |  |  |  |  |  | 
17 | CCCN(CCC)C(=O)Cc1c(-c2ccc(C)cc2)[nH]c2ccc(C)cc12 [Compound No. 8] | 0.0415 | > 1 |  |  | 0.0685 | 1.6 |  |  |  |  | 10^-7 M | 220% | 0.033 |  | 
18 | CN(C)C(=O)Cc1c(-c2ccccc2)[nH]c2ccccc12 [Compound No. 7] | 0.6 | > 1 | > 1 |  | 0.6 | 1 |  |  |  |  | 10^-7 M | 131% | 0.01 | low intrinsic efficacy | relatively high affinity
